# Reference: the supplement of paper PMC10307832
# Compound: CC1(COc2ccc3c(c2)ncn3-c2ccc3cccc(N4CCC(N)CC4)c3n2)COC1 [Crenolanib] + COc1cc2c(Oc3ccc(NC(=O)C4(C(=O)Nc5ccc(F)cc5)CC4)cc3F)ccnc2cc1OCCCN1CCOCC1 [Foretinib] (partner 0.25 µM)
# Experiment: relative viability (nuclei count vs DMSO), 5 days (fraction); higher = more cells survive
# Details: first compound 1 µM
# Procedure, shortened: (§1)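 Lung cancer cell lines in 1536-well plates were dosed by pin tool the day after seeding, either with one drug alone or with a fixed anchor-drug dose plus five library-drug doses (not always all listed) in √10 steps. After 5 days, cells were fixed and their nuclei stained in one step (final 0.05% Triton X-100, 1% formaldehyde, 1 ug/ml Hoechst), then counted on 4× images. Relative viability is the nuclei count in treated wells divided by that in vehicle wells. Values are medians of duplicate plates.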
row,Cell Line,relative viability
1,NCI-H1651,0.787
2,EBC-1,0.115
3,NCI-H1734,0.876
4,NCI-H2009,1.1
5,EPLC-272H,0.797
6,PC-14,0.933
7,LCLC-97TM1,0.971
8,NCI-H596,1.03
9,NCI-H2228,1.04
10,EMC-BAC-2,1.07
11,NCI-H2087,1.27
12,Calu-6,0.976
13,NCI-H1703,0.269
14,NCI-H647,1.28
15,LK-2,1.36
16,NCI-H2126,1.23
17,NCI-H2342,0.816
18,SK-MES-1,1.14
19,HARA,0.911

row,Cell Line,relative viability
1,COR-L23,0.927
2,COR-L 105,1.05
3,LC-2-ad,0.823
4,LU99A,0.897
5,ChaGo-K-1,0.84
6,NCI-H2170,1.02
7,NCI-H3122,1.04
8,IA-LM,1.3
9,A549,1.01
10,SW 900,0.848
11,NCI-H2023,1.02
12,NCI-H520,0.746
13,SW 1573,0.966
14,NCI-H1299,1.11
15,NCI-H1563,0.948
16,NCI-H1650,0.945
17,SK-LU-1,0.905
18,NCI-H661,1.02

# Compound: O=C1NC(=O)[C@@H](c2cn3c4c(cccc24)CCC3)[C@@H]1c1c[nH]c2ccccc12 [Tivantinib] + Cc1nc(NC(=O)N2CCC[C@H]2C(N)=O)sc1-c1ccnc(C(C)(C)C(F)(F)F)c1 [Alpelisib] (partner 2 µM)
# Experiment: as above
# Details: first compound 0.01 µM
# Procedure, shortened: as §1
row,Cell Line,relative viability
1,NCI-H838,0.915
2,NCI-H1651,1.04
3,EBC-1,0.948
4,NCI-H1734,0.677
5,NCI-H2009,1.15
6,EPLC-272H,0.975
7,PC-14,0.874
8,LCLC-97TM1,0.237
9,NCI-H596,0.623
10,NCI-H2228,0.842
11,EMC-BAC-2,0.792
12,NCI-H2087,1
13,Calu-6,0.987
14,HCC-44,0.844
15,NCI-H1703,0.499
16,NCI-H647,1.15
17,LK-2,1.24
18,NCI-H2126,0.745

row,Cell Line,relative viability
1,SK-MES-1,0.912
2,HARA,0.962
3,COR-L23,0.864
4,COR-L 105,1
5,LC-2-ad,0.889
6,LU99A,0.477
7,NCI-H2170,0.806
8,NCI-H3122,0.731
9,IA-LM,0.878
10,A549,0.769
11,NCI-H2023,0.549
12,NCI-H520,0.921
13,SW 1573,0.941
14,NCI-H1299,1.09
15,NCI-H1563,1.04
16,NCI-H1792,0.804
17,SK-LU-1,1.04
18,NCI-H661,0.404

# Same assay, conditions: first compound 0.03162 µM
row,Cell Line,relative viability
1,NCI-H838,1.06
2,NCI-H1651,0.856
3,EBC-1,0.865
4,NCI-H1734,0.597
5,NCI-H2009,1.21
6,EPLC-272H,0.922
7,PC-14,0.927
8,LCLC-97TM1,0.215
9,NCI-H596,0.397
10,NCI-H2228,0.644
11,EMC-BAC-2,0.718
12,NCI-H2087,1.06
13,Calu-6,1.03
14,HCC-44,0.703
15,NCI-H1703,0.329
16,NCI-H647,1.16
17,NCI-H2126,0.739
18,SK-MES-1,0.867

row,Cell Line,relative viability
1,HARA,0.737
2,COR-L23,0.754
3,COR-L 105,0.921
4,LC-2-ad,0.93
5,LU99A,0.477
6,NCI-H2170,0.852
7,NCI-H3122,0.849
8,IA-LM,0.653
9,A549,0.818
10,NCI-H2023,0.642
11,NCI-H520,0.991
12,SW 1573,0.738
13,NCI-H1299,1.01
14,NCI-H1563,0.89
15,NCI-H1792,0.633
16,SK-LU-1,1.17
17,NCI-H661,0.86

# Same assay, conditions: first compound 0.1 µM
row,Cell Line,relative viability
1,NCI-H838,0.973
2,NCI-H1651,1.01
3,EBC-1,0.841
4,NCI-H1734,0.64
5,NCI-H2009,1.12
6,EPLC-272H,0.836
7,PC-14,0.945
8,LCLC-97TM1,0.2
9,NCI-H596,0.358
10,NCI-H2228,0.618
11,EMC-BAC-2,0.705
12,NCI-H2087,1.02
13,Calu-6,1.02
14,HCC-44,0.858
15,NCI-H1703,0.256
16,NCI-H647,1.09
17,LK-2,0.58
18,NCI-H2126,0.749

row,Cell Line,relative viability
1,SK-MES-1,0.929
2,HARA,0.827
3,COR-L23,0.671
4,COR-L 105,0.783
5,LC-2-ad,0.847
6,LU99A,0.453
7,NCI-H2170,0.674
8,NCI-H3122,0.803
9,IA-LM,0.853
10,A549,0.708
11,NCI-H2023,0.5
12,NCI-H520,0.815
13,SW 1573,0.741
14,NCI-H1299,1.01
15,NCI-H1563,0.932
16,NCI-H1792,0.699
17,SK-LU-1,0.995
18,NCI-H661,0.72

# Same assay, conditions: first compound 0.3162 µM
row,Cell Line,relative viability
1,NCI-H838,0.953
2,NCI-H1651,0.915
3,EBC-1,0.719
4,NCI-H1734,0.681
5,NCI-H2009,1.14
6,EPLC-272H,0.672
7,PC-14,0.892
8,LCLC-97TM1,0.198
9,NCI-H596,0.433
10,NCI-H2228,0.695
11,EMC-BAC-2,0.656
12,NCI-H2087,0.956
13,Calu-6,0.955
14,HCC-44,0.793
